# Data from ChEMBL document CHEMBL6134816, “The discovery of novel N-heterocyclic-based AKT inhibitors with potential efficacy against prostate cancer” (Eur J Med Chem, 2025).
# Active and inactive are the calls of the source. No cut-off for these calls is given here.
# Assays:
# [1] = test system: PC-3; assay: cells; details: Homo sapiens, PC-3, 72 h
# Description: Antiproliferative activity against human PC-3 cells assessed as inhibition of cell proliferation incubated for 72 hrs by MTT assay
# [2] = test system: PC-3; assay: Cell cycle arrest in human PC-3 cells assessed as accumulation of cells at G1 phase at 1 uM incubated for 48 hrs by PI staining based flow cytometric analysis (reference value: 60.75 %); assay type: functional
# [3] = test system: PC-3; assay: Cell cycle arrest in human PC-3 cells assessed as accumulation of cells at S phase at 5 uM incubated for 48 hrs by PI staining based flow cytometric analysis (reference value: 24.79 %); assay type: functional
# [4] = test system: PC-3; assay: Upregulation of phosphorylated AKT expression level in human PC-3 cells at 1 to 10 uM incubated for 24 hrs by Western blot analysis; assay type: functional, cell-based; details: dose 1-10 µM
# [5] = test system: PC-3; assay: Cell cycle arrest in human PC-3 cells assessed as accumulation of cells at G1 phase at 5 uM incubated for 48 hrs by PI staining based flow cytometric analysis (reference value: 60.75 %); assay type: functional
# [6] = test system: PC-3; assay: Cell cycle arrest in human PC-3 cells assessed as accumulation of cells at G2 phase at 5 uM incubated for 48 hrs by PI staining based flow cytometric analysis (reference value: 14.45 %); assay type: functional
# [7] = test system: PC-3; assay: Cell cycle arrest in human PC-3 cells assessed as accumulation of cells at G2 phase at 1 uM incubated for 48 hrs by PI staining based flow cytometric analysis (reference value: 14.45 %); assay type: functional
# [8] = test system: PC-3; assay: Cell cycle arrest in human PC-3 cells assessed as accumulation of cells at G2 phase at 10 uM incubated for 48 hrs by PI staining based flow cytometric analysis (reference value: 14.45 %); assay type: functional
# [9] = test system: PC-3; assay: Inhibition of AKT signaling pathway in human PC-3 cells assessed as reduction in phosphorylated GSK3beta level at 1 to 10 uM incubated for 24 hrs by Western blot analysis; assay type: cell-based; details: dose 1-10 µM
# [10] = test system: PC-3; assay: Induction of apoptosis in human PC-3 cells assessed as apoptotic rate at 1 uM incubated for 48 hrs by Annexin V-FITC/PI staining based flow cytometric analysis relative to control; assay type: functional
# [11] = test system: PC-3; assay: Cell cycle arrest in human PC-3 cells assessed as accumulation of cells at G1 phase at 10 uM incubated for 48 hrs by PI staining based flow cytometric analysis (reference value: 60.75 %); assay type: functional
# [12] = test system: PC-3; assay: Induction of apoptosis in human PC-3 cells assessed as apoptotic rate at 5 to 10 uM incubated for 48 hrs by Annexin V-FITC/PI staining based flow cytometric analysis relative to control; assay type: functional; details: dose 5-10 µM
# [13] = test system: PC-3; assay: Cell cycle arrest in human PC-3 cells assessed as accumulation of cells at S phase at 1 uM incubated for 48 hrs by PI staining based flow cytometric analysis (reference value: 24.79 %); assay type: functional
# [14] = test system: PC-3; assay: Cell cycle arrest in human PC-3 cells assessed as accumulation of cells at S phase at 10 uM incubated for 48 hrs by PI staining based flow cytometric analysis (reference value: 24.79 %); assay type: functional
# [15] = target: Ribosomal protein S6 kinase alpha-1 (Homo sapiens) (UniProt Q15418); assay: Inhibition of RSK1 (unknown origin) at 1 uM relative to control
# [16] = target: RAF proto-oncogene serine/threonine-protein kinase (Homo sapiens) (UniProt P04049); assay: Inhibition of RAF-1 (unknown origin) at 1 uM relative to control
# [17] = target: MAP kinase-interacting serine/threonine-protein kinase 1 (Homo sapiens) (UniProt Q9BUB5); assay: Inhibition of MNK1 (unknown origin) at 1 uM relative to control
# [18] = organism: Homo sapiens; assay: Inhibition of ABL (unknown origin) at 1 uM relative to control
# [19] = target: Ribosomal protein S6 kinase beta-1 (Homo sapiens) (UniProt P23443); assay: Inhibition of p70S6K (unknown origin) at 1 uM relative to control
# [20] = AUC (0 to t) in male ICR mouse at 10 mg/kg, po measured after 24 hrs by LC-MS/MS analysis; assay type: ADME, organism-based; details: in vivo
# [21] = Half-life in male ICR mouse at 10 mg/kg, po measured after 24 hrs by LC-MS/MS analysis; assay type: ADME, organism-based; details: in vivo
# [22] = target: RAC-beta serine/threonine-protein kinase (Homo sapiens) (UniProt P31751); assay: Inhibition of AKT2 (unknown origin) using biotin-tagged STK as substrate at 10 nM incubated for 40 mins in presence of ATP by fluorescence based microplate reader analysis relative to control
# [23] = target: Glycogen synthase kinase-3 beta (Homo sapiens) (UniProt P49841); assay: Inhibition of GSK3beta (unknown origin) at 1 uM relative to control
# [24] = Half-life in male ICR mouse at 1 mg/kg, iv measured after 24 hrs by LC-MS/MS analysis; assay type: ADME, organism-based; details: in vivo
# [25] = target: Cyclin-dependent kinase 1 (Homo sapiens) (UniProt P06493); assay: Inhibition of CDK1 (unknown origin) at 1 uM relative to control
# [26] = target: Tyrosine-protein kinase JAK1 (Homo sapiens) (UniProt P23458); assay: Inhibition of JAK1 (unknown origin) at 1 uM relative to control
# [27] = MRT (0 to infinity) in male ICR mouse at 1 mg/kg, iv measured after 24 hrs by LC-MS/MS analysis; assay type: ADME, organism-based; details: in vivo
# [28] = Volume of distribution in male ICR mouse at 1 mg/kg, iv measured after 24 hrs by LC-MS/MS analysis; assay type: ADME, organism-based; details: in vivo
# [29] = AUC (0 to infinity) in male ICR mouse at 1 mg/kg, iv measured after 24 hrs by LC-MS/MS analysis; assay type: ADME, organism-based; details: in vivo
# [30] = target: Serine/threonine-protein kinase B-raf (Homo sapiens) (UniProt P15056); assay: Inhibition of B-raf (unknown origin) at 1 uM relative to control
# [31] = Oral bioavailability in male ICR mouse at 10 mg/kg measured after 24 hrs by LC-MS/MS analysis; assay type: ADME, organism-based; details: in vivo
# [32] = Clearance in male ICR mouse at 1 mg/kg, iv measured after 24 hrs by LC-MS/MS analysis; assay type: ADME, organism-based; details: in vivo
# [33] = organism: Homo sapiens; assay: Inhibition of PKA (unknown origin) at 1 uM relative to control
# [34] = target: RAC-gamma serine/threonine-protein kinase (Homo sapiens) (UniProt Q9Y243); assay: Inhibition of AKT3 (unknown origin) using biotin-tagged STK as substrate at 10 nM incubated for 40 mins in presence of ATP by fluorescence based microplate reader analysis relative to control
# [35] = Tmax in male ICR mouse at 10 mg/kg, po measured after 24 hrs by LC-MS/MS analysis; assay type: ADME, organism-based; details: in vivo
# [36] = AUC (0 to infinity) in male ICR mouse at 10 mg/kg, po measured after 24 hrs by LC-MS/MS analysis; assay type: ADME, organism-based; details: in vivo
# [37] = MRT (0 to infinity) in male ICR mouse at 10 mg/kg, po measured after 24 hrs by LC-MS/MS analysis; assay type: ADME, organism-based; details: in vivo
# [38] = AUC (0 to t) in male ICR mouse at 1 mg/kg, iv measured after 24 hrs by LC-MS/MS analysis; assay type: ADME, organism-based; details: in vivo
# [39] = Cmax in male ICR mouse at 10 mg/kg, po measured after 24 hrs by LC-MS/MS analysis; assay type: ADME, organism-based; details: in vivo
# [40] = target: Rho-associated protein kinase 1 (Homo sapiens) (UniProt Q13464); assay: Inhibition of ROCK1 (unknown origin) at 1 uM relative to control
# Sequence of RAC-gamma serine/threonine-protein kinase (Homo sapiens) (Q9Y243 whole entry): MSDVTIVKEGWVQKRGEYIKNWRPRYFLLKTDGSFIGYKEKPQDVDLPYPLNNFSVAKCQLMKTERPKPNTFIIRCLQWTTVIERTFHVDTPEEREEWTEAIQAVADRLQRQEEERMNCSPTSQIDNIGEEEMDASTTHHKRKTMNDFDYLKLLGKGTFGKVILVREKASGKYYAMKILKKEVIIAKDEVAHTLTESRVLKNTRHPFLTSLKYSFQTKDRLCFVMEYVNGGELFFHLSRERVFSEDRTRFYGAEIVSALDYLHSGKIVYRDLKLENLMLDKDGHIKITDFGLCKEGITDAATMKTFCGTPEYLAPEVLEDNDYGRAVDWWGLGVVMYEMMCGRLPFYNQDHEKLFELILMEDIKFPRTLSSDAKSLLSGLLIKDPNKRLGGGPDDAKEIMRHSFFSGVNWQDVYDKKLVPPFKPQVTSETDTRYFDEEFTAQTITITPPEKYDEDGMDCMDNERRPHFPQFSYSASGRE
# Sequence of RAF proto-oncogene serine/threonine-protein kinase (Homo sapiens) (P04049 whole entry): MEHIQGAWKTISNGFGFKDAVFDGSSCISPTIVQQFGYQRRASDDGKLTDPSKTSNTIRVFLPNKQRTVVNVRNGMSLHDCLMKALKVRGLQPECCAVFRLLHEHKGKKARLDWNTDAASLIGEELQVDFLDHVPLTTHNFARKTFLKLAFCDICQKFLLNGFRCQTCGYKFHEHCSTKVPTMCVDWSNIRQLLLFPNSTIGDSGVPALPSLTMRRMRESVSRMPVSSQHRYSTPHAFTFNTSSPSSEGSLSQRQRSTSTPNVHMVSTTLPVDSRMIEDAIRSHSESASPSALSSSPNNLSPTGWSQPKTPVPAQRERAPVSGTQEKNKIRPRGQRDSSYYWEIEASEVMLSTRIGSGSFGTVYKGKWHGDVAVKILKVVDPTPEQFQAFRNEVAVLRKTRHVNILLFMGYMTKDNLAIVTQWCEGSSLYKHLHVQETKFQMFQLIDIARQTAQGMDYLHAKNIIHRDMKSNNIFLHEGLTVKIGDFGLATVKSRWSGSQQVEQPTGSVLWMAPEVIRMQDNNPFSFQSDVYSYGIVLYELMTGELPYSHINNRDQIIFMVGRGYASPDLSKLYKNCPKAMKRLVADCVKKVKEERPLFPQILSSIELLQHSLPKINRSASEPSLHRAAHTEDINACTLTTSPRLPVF
# Sequence of Cyclin-dependent kinase 1 (Homo sapiens) (P06493 whole entry, looked up): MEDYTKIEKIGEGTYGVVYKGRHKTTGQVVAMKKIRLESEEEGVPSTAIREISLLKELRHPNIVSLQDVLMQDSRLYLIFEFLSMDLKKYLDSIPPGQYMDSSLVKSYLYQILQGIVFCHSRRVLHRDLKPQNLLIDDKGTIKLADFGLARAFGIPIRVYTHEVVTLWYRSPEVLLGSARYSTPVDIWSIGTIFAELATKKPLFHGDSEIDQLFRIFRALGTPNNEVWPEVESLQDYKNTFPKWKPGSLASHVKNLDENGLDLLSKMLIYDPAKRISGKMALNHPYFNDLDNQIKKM
# Sequence of Serine/threonine-protein kinase B-raf (Homo sapiens) (P15056 whole entry): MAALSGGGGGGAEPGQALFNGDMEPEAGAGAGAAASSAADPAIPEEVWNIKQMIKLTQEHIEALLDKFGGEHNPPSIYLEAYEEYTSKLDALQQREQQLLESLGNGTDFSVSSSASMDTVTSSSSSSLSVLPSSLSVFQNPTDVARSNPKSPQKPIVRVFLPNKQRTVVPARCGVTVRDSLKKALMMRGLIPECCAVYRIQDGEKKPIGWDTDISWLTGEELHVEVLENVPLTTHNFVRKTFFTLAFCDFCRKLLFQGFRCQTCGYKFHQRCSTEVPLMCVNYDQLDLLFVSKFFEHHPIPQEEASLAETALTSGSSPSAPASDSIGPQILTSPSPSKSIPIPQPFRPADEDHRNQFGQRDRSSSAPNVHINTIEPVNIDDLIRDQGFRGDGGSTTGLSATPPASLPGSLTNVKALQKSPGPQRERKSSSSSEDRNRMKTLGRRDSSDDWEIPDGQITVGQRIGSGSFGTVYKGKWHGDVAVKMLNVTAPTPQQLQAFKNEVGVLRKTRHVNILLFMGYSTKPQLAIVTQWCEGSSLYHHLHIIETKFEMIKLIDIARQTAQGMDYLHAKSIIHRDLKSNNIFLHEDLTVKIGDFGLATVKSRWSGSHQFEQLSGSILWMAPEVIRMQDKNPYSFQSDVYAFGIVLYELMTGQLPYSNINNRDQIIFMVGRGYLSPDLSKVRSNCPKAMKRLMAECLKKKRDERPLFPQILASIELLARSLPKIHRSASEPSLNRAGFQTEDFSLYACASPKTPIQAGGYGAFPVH
# Sequence of Tyrosine-protein kinase JAK1 (Homo sapiens) (P23458 whole entry): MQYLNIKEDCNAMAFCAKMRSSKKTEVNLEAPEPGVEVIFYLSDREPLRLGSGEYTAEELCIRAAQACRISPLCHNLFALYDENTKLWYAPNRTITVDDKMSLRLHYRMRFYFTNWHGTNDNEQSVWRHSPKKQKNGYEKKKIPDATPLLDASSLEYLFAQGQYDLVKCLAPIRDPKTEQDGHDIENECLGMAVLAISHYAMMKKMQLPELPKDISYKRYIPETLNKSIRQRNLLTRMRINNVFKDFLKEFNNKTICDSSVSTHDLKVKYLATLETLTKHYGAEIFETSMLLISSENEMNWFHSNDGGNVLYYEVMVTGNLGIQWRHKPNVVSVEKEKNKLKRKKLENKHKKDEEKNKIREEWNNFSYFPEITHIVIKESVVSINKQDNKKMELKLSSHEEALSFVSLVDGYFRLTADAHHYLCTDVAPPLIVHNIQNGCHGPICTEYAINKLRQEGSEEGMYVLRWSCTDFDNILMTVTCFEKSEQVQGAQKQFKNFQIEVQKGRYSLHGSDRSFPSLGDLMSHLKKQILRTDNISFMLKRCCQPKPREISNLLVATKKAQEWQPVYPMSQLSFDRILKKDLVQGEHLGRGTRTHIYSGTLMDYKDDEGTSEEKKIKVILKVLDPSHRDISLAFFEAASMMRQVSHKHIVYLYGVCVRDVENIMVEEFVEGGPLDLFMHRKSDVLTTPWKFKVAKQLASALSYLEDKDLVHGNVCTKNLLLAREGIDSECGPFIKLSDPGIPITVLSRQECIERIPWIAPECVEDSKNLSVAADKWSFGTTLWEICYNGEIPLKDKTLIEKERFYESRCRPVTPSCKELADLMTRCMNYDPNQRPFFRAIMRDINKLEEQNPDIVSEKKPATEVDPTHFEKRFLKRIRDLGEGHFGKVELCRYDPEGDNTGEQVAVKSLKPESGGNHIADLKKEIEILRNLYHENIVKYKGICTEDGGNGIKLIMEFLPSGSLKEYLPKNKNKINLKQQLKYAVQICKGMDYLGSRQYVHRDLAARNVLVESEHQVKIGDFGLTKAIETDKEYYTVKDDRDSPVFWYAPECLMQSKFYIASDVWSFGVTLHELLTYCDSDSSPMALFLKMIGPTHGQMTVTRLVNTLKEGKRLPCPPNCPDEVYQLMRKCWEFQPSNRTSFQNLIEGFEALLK
# Sequence of Glycogen synthase kinase-3 beta (Homo sapiens) (P49841 whole entry, looked up): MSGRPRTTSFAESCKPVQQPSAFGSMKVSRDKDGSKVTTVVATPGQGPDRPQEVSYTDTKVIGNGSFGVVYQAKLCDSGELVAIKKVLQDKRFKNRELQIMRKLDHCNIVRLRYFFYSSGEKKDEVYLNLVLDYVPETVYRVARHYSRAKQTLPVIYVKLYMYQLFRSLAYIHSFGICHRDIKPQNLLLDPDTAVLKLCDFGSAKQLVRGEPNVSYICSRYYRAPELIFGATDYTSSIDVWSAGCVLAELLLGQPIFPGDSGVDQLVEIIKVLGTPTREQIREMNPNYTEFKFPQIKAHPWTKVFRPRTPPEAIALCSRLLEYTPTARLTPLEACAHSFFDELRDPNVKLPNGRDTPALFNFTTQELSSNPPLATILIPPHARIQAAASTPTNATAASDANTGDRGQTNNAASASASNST
# Sequence of RAC-beta serine/threonine-protein kinase (Homo sapiens) (P31751 whole entry): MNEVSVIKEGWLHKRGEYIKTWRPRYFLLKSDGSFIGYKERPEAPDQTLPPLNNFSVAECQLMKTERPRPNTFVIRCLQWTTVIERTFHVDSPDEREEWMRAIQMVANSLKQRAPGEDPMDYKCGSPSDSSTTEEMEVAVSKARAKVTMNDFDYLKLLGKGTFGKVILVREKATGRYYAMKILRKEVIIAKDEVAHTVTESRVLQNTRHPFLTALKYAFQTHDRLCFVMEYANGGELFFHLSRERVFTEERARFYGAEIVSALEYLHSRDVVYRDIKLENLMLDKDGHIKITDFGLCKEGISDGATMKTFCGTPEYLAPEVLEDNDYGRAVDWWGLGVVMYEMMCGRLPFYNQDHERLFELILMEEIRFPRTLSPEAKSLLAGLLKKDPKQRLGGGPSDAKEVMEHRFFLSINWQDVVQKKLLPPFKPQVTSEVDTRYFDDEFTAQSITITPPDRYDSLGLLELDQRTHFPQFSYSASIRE
# Sequence of Ribosomal protein S6 kinase beta-1 (Homo sapiens) (P23443 whole entry, looked up): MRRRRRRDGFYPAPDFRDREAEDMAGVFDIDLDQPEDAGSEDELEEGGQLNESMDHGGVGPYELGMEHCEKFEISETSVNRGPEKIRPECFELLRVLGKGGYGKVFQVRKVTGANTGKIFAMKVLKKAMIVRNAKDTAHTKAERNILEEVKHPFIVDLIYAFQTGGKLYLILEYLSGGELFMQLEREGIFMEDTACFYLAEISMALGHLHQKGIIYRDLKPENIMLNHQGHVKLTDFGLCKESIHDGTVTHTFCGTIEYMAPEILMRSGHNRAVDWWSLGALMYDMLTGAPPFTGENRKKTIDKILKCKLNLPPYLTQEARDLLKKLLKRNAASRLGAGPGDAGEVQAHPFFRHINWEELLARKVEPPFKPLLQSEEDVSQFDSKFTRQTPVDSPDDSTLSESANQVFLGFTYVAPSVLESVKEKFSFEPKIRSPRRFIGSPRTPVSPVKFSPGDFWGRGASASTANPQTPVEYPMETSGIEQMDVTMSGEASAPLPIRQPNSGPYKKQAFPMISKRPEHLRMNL
smiles,measurement,setting,value
CC(C)NCC(C(=O)N1CCN(c2ncnc3[nH]cnc23)CC1)c1ccc(Br)cc1 (configuration not stated),IC50,[1],20.1 µM
CNc1nc(N2CCN(C(=O)C(CNC(C)C)c3ccc(Br)cc3)CC2)c2sccc2n1 (configuration not stated),IC50,[1],4.9 µM
CC(C)NCC(C(=O)N1CCN(c2ncnc3[nH]nc(Cl)c23)CC1)c1ccc(Br)cc1 (configuration not stated),Activity,[2],52.46%
same,Activity,[3],36.86%
same,Activity,[4],Active; Negative Feedback Regulation Within Akt Signaling Pathway Observed
same,Activity,[5],53.89%
same,Activity,[6],9.25%
same,Activity,[7],14.35%
same,IC50,[1],2.9 µM
same,Activity,[8],6.37%
same,inhibition,[9],Active
same,Activity,[10],15.13%
same,Activity,[11],46.45%
same,Activity,[12],>20%
same,Activity,[13],32.69%
same,Activity,[14],47.17%
CC(C)NCC(C(=O)N1CCN(c2ncnc3[nH]ncc23)CC1)c1ccc(Cl)cc1Cl (configuration not stated),IC50,[1],> 40 µM
Cc1c[nH]c2ncnc(N3CCN(C(=O)C(CNC(C)C)c4ccc(Cl)cc4Cl)CC3)c12 (configuration not stated),IC50,[1],22 µM
Cc1c[nH]c2ncnc(N3CCN(C(=O)C(CNC(C)C)c4ccc(Br)cc4)CC3)c12 (configuration not stated),IC50,[1],15.8 µM
CC(C)NCC(C(=O)N1CCN(c2ncnc3[nH]nc(Br)c23)CC1)c1ccc(Br)cc1 (configuration not stated),Activity,[2],49.42%
same,inhibition,[15],99%
same,Activity,[3],36.75%
same,inhibition,[16],< 60%
same,Activity,[4],Active; Negative Feedback Regulation Within Akt Signaling Pathway Observed
same,inhibition,[17],< 60%
same,inhibition,[18],< 60%
same,inhibition,[19],101%
same,Activity,[5],53.21%
same,AUC(0-t) at 24 h,[20],830 ng·h/mL
same,half-life,[21],95.4 min
same,inhibition,[22],64%
same,Activity,[6],10.04%
same,inhibition,[23],< 60%
same,half-life,[24],111 min
same,inhibition,[25],< 60%
same,inhibition,[26],< 60%
same,MRT inf,[27],1.68 h
same,Vd,[28],12.3 L/kg
same,AUC(0-inf),[29],214 ng·h/mL
same,inhibition,[30],< 60%
same,Activity,[7],12.24%
same,bioavailability,[31],41%
same,IC50,[1],3 µM
same,clearance,[32],78.6 mL/min/kg
same,Activity,[8],9.23%
same,inhibition,[9],Active
same,inhibition,[33],98%
same,Activity,[10],12.28%
same,Activity,[11],52.45%
same,Activity,[12],>20%
same,inhibition,[34],89%
same,Tmax,[35],30 min
same,Activity,[13],38.35%
same,AUC(0-inf),[36],876 ng·h/mL
same,MRT inf,[37],2.43 h
same,AUC(0-t) at 24 h,[38],202 ng·h/mL
same,Activity,[14],38.31%
same,Cmax,[39],306 ng/mL
same,inhibition,[40],91%
CNc1nccc(N2CCN(C(=O)C(CNC(C)C)c3ccc(Br)cc3)CC2)n1 (configuration not stated),IC50,[1],> 40 µM
CC(C)NCC(C(=O)N1CCN(c2ncnc3ccccc23)CC1)c1ccc(Br)cc1 (configuration not stated),IC50,[1],30.2 µM
CC(C)NCC(C(=O)N1CCN(c2ncnc3ccccc23)CC1)c1ccc(Cl)cc1Cl (configuration not stated),IC50,[1],> 40 µM
